# Laboratory results from ChEMBL document CHEMBL4507284, “Data for DCP probe BI-1230” (2021).
# Legend:
# [1] = target: Tyrosine-protein kinase ABL1 (Homo sapiens) (UniProt P00519); settings: Compound concentration 1000.0 nM
# [2] = target: Tyrosine-protein kinase ABL2 (Homo sapiens) (UniProt P42684); settings: Compound concentration 1000.0 nM
# [3] = target: Atypical kinase COQ8A, mitochondrial (Homo sapiens) (UniProt Q8NI60); settings: Compound concentration 1000.0 nM
# [4] = target: 5'-AMP-activated protein kinase catalytic subunit alpha-2 (Homo sapiens) (UniProt P54646); settings: Compound concentration 1000.0 nM
# [5] = target: NUAK family SNF1-like kinase 1 (Homo sapiens) (UniProt O60285); settings: Compound concentration 1000.0 nM
# [6] = target: Calcium/calmodulin-dependent protein kinase type II subunit alpha (Homo sapiens) (UniProt Q9UQM7); settings: Compound concentration 1000.0 nM
# [7] = target: Calcium/calmodulin-dependent protein kinase type II subunit gamma (Homo sapiens) (UniProt Q13555); settings: Compound concentration 1000.0 nM
# [8] = target: Calcium/calmodulin-dependent protein kinase kinase 2 (Homo sapiens) (UniProt Q96RR4); settings: Compound concentration 1000.0 nM
# [9] = target: Serine/threonine-protein kinase Chk1 (Homo sapiens) (UniProt O14757); settings: Compound concentration 1000.0 nM
# [10] = target: Casein kinase I isoform epsilon (Homo sapiens) (UniProt P49674); settings: Compound concentration 1000.0 nM
# [11] = target: Megakaryocyte-associated tyrosine-protein kinase (Homo sapiens) (UniProt P42679); settings: Compound concentration 1000.0 nM
# [12] = target: Ephrin type-A receptor 5 (Homo sapiens) (UniProt P54756); settings: Compound concentration 1000.0 nM
# [13] = target: Inhibitor of nuclear factor kappa-B kinase subunit beta (Homo sapiens) (UniProt O14920); settings: Compound concentration 1000.0 nM
# [14] = target: Tyrosine-protein kinase JAK3 (Homo sapiens) (UniProt P52333); settings: Compound concentration 1000.0 nM
# [15] = target: Mitogen-activated protein kinase 10 (Homo sapiens) (UniProt P53779); settings: Compound concentration 1000.0 nM
# [16] = target: Serine/threonine-protein kinase LATS2 (Homo sapiens) (UniProt Q9NRM7); settings: Compound concentration 1000.0 nM
# [17] = target: Mitogen-activated protein kinase kinase kinase kinase 3 (Homo sapiens) (UniProt Q8IVH8); settings: Compound concentration 1000.0 nM
# [18] = target: Serine/threonine-protein kinase Nek6 (Homo sapiens) (UniProt Q9HC98); settings: Compound concentration 1000.0 nM
# [19] = target: Mitogen-activated protein kinase 12 (Homo sapiens) (UniProt P53778); settings: Compound concentration 1000.0 nM
# [20] = target: Serine/threonine-protein kinase PAK 1 (Homo sapiens) (UniProt Q13153); settings: Compound concentration 1000.0 nM
# [21] = target: 3-phosphoinositide-dependent protein kinase 1 (Homo sapiens) (UniProt O15530); settings: Compound concentration 1000.0 nM
# [22] = target: Calcium-dependent protein kinase 1 (Plasmodium falciparum) (UniProt P62344); settings: Compound concentration 1000.0 nM
# [23] = target: Protein kinase C epsilon type (Homo sapiens) (UniProt Q02156); settings: Compound concentration 1000.0 nM
# [24] = target: Serine/threonine-protein kinase D3 (Homo sapiens) (UniProt O94806); settings: Compound concentration 1000.0 nM
# [25] = target: cGMP-dependent protein kinase 1 (Homo sapiens) (UniProt Q13976); settings: Compound concentration 1000.0 nM
# [26] = target: Receptor-interacting serine/threonine-protein kinase 1 (Homo sapiens) (UniProt Q13546); settings: Compound concentration 1000.0 nM
# [27] = target: Receptor-interacting serine/threonine-protein kinase 4 (Homo sapiens) (UniProt P57078); settings: Compound concentration 1000.0 nM
# [28] = target: Ribosomal protein S6 kinase alpha-2 (Homo sapiens) (UniProt Q15349); settings: Compound concentration 1000.0 nM
# [29] = target: Serine/threonine-protein kinase Sgk1 (Homo sapiens) (UniProt O00141); settings: Compound concentration 1000.0 nM
# [30] = target: Uncharacterized serine/threonine-protein kinase SBK3 (Homo sapiens) (UniProt P0C264); settings: Compound concentration 1000.0 nM
# [31] = target: SRSF protein kinase 2 (Homo sapiens) (UniProt P78362); settings: Compound concentration 1000.0 nM
# [32] = target: Serine/threonine-protein kinase 36 (Homo sapiens) (UniProt Q9NRP7); settings: Compound concentration 1000.0 nM
# [33] = target: Mitogen-activated protein kinase kinase kinase 7 (Homo sapiens) (UniProt O43318); settings: Compound concentration 1000.0 nM
# [34] = target: Dual specificity testis-specific protein kinase 1 (Homo sapiens) (UniProt Q15569); settings: Compound concentration 1000.0 nM
# [35] = target: TGF-beta receptor type-1 (Homo sapiens) (UniProt P36897); settings: Compound concentration 1000.0 nM
# [36] = target: Serine/threonine-protein kinase tousled-like 2 (Homo sapiens) (UniProt Q86UE8); settings: Compound concentration 1000.0 nM
# [37] = target: TRAF2 and NCK-interacting protein kinase (Homo sapiens) (UniProt Q9UKE5); settings: Compound concentration 1000.0 nM
# [38] = target: Wee1-like protein kinase (Homo sapiens) (UniProt P30291); settings: Compound concentration 1000.0 nM
# [39] = target: Serine/threonine-protein kinase WNK1 (Homo sapiens) (UniProt Q9H4A3); settings: Compound concentration 1000.0 nM
# [40] = target: D(1A) dopamine receptor (Homo sapiens) (UniProt P21728); settings: Compound concentration 10.0 uM
# [41] = target: Histamine H2 receptor (Homo sapiens) (UniProt P25021); settings: Compound concentration 10.0 uM
# [42] = target: Histamine H4 receptor (Homo sapiens) (UniProt Q9H3N8); settings: Compound concentration 10.0 uM
# [43] = target: Alpha-2B adrenergic receptor (Homo sapiens) (UniProt P18089); settings: Compound concentration 10.0 uM
# [44] = target: Muscarinic acetylcholine receptor M3 (Homo sapiens) (UniProt P20309); settings: Compound concentration 10.0 uM
# [45] = target: Sigma non-opioid intracellular receptor 1 (Homo sapiens) (UniProt Q99720); settings: Compound concentration 10.0 uM
# Chain of D(1A) dopamine receptor (Homo sapiens) (P21728 whole entry): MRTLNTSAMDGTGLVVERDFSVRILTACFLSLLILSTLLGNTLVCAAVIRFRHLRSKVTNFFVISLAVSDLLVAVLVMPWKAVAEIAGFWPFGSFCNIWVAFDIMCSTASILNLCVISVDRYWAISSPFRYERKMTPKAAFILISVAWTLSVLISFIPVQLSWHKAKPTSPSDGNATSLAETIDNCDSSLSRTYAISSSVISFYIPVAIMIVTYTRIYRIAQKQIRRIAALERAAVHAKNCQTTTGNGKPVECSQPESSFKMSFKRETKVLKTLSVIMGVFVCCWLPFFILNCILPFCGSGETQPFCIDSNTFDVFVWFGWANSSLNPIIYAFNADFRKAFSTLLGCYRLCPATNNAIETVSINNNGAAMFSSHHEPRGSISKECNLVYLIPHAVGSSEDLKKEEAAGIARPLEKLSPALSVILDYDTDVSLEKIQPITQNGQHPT
# Chain of Serine/threonine-protein kinase WNK1 (Homo sapiens) (Q9H4A3 whole entry, looked up): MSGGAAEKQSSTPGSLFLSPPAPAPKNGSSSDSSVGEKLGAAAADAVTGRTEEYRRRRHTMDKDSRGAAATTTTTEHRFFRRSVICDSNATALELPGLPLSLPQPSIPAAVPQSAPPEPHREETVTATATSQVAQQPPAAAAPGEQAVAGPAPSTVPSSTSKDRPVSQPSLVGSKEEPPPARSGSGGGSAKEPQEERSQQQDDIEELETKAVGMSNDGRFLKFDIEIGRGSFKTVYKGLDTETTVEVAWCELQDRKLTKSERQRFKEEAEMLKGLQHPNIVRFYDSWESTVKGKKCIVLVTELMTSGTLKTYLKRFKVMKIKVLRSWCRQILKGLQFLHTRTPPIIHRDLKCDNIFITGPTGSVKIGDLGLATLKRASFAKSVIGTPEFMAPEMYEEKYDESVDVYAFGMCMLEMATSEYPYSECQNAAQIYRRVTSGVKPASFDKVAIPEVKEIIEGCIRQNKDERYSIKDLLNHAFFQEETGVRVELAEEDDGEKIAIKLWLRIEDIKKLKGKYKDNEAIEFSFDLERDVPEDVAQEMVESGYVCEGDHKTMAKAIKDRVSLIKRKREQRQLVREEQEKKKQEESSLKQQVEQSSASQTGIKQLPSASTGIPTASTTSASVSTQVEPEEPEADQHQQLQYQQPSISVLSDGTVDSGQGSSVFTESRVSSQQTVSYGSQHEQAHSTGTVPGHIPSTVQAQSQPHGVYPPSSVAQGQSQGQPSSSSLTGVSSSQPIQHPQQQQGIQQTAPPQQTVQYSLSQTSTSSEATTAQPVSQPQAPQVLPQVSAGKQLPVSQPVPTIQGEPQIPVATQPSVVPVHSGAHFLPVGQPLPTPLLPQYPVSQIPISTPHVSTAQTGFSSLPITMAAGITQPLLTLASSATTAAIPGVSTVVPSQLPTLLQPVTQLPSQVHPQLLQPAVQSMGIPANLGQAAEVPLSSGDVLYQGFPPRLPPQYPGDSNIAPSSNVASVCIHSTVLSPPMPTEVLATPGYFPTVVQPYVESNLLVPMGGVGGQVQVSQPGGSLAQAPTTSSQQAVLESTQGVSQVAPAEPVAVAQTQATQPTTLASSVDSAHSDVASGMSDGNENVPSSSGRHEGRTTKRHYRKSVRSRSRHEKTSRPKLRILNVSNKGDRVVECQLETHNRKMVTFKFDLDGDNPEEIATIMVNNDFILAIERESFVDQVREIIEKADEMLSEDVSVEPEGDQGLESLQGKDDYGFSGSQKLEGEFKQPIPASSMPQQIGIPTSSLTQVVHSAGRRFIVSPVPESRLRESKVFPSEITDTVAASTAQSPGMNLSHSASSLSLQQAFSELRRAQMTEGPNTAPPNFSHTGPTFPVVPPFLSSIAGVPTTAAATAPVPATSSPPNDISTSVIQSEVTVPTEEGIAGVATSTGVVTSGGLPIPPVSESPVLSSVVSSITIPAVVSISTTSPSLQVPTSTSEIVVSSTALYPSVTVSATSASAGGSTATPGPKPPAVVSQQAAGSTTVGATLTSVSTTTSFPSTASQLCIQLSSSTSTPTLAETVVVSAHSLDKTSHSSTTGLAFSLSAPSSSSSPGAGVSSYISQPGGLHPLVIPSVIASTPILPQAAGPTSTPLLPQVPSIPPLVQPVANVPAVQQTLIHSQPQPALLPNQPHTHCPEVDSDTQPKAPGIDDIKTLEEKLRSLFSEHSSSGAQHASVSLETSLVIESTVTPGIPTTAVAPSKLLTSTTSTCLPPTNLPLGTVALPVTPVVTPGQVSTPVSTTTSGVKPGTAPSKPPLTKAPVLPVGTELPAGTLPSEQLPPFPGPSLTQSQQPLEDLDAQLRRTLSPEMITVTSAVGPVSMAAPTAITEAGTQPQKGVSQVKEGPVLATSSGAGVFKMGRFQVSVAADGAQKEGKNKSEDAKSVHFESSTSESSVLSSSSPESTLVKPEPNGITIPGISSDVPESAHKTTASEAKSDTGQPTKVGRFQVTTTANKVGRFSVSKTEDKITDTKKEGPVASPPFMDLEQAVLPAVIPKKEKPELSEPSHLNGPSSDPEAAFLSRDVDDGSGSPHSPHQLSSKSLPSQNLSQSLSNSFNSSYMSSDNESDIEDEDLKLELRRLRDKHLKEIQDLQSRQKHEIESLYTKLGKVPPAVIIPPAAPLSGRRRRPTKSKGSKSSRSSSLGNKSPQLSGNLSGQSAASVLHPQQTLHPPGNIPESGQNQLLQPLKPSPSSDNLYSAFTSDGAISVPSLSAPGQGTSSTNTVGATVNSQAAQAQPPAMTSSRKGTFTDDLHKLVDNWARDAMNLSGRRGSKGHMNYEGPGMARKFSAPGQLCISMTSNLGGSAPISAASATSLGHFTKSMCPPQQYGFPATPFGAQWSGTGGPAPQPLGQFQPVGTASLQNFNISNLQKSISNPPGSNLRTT
# Chain of Receptor-interacting serine/threonine-protein kinase 1 (Homo sapiens) (Q13546 whole entry): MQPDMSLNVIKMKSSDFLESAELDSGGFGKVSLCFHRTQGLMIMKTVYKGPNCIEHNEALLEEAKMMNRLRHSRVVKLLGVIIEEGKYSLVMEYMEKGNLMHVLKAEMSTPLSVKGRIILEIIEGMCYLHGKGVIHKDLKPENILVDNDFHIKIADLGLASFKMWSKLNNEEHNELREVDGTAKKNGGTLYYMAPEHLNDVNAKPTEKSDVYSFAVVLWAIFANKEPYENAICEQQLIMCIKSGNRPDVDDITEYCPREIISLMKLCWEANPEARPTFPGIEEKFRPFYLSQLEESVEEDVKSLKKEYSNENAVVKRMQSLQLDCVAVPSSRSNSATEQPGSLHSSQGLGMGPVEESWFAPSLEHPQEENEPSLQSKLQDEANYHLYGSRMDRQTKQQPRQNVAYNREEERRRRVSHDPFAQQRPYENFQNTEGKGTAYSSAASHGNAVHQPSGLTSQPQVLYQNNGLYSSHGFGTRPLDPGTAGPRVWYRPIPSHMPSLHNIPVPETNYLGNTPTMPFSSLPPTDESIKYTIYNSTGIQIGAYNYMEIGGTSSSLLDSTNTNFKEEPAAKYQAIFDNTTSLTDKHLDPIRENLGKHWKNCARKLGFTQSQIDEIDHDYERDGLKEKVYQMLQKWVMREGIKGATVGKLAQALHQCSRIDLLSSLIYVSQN
# Chain of Ribosomal protein S6 kinase alpha-2 (Homo sapiens) (Q15349 whole entry): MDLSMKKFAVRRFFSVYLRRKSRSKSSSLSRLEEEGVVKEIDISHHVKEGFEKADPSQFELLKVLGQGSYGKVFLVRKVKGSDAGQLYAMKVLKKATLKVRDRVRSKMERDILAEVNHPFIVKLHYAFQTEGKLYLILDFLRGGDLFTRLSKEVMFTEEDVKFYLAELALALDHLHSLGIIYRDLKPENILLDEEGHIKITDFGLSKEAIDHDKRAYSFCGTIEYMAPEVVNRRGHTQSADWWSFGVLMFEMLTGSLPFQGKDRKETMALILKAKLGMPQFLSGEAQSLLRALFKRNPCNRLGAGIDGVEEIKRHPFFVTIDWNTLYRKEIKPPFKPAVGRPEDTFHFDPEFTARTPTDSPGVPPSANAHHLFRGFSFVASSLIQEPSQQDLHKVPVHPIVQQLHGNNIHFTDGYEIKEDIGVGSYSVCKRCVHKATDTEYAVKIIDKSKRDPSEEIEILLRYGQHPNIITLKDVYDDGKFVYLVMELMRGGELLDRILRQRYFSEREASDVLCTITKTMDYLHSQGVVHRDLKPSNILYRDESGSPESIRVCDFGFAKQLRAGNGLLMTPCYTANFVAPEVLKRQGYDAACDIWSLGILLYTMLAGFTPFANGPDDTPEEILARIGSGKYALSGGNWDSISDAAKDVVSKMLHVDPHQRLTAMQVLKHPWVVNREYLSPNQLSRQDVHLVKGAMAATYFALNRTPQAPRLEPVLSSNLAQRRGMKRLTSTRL
# Chain of Histamine H4 receptor (Homo sapiens) (Q9H3N8 whole entry): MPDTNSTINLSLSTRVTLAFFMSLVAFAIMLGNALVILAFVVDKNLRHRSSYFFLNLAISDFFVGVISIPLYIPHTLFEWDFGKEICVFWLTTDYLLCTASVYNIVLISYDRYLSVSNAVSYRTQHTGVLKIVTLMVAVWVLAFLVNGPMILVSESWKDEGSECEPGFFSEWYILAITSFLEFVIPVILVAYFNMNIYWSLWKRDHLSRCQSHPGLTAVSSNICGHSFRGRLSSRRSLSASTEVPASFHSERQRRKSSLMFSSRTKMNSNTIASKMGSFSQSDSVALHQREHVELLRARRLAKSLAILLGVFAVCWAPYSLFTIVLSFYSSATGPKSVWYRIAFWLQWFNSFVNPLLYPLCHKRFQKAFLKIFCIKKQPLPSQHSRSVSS
# Chain of Histamine H2 receptor (Homo sapiens) (P25021 whole entry): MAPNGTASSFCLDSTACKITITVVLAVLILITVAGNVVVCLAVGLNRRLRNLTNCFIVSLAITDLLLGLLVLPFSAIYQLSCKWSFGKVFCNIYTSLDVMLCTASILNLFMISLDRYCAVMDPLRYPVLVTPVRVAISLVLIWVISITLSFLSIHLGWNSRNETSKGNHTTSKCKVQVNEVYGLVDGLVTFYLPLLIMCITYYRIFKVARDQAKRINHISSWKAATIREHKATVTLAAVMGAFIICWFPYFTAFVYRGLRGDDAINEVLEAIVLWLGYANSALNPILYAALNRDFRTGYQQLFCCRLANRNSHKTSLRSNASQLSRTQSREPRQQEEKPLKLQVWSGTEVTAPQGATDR
smiles,measurement,setting,value
COc1ccc2c(O[C@@H]3C[C@H]4C(=O)N[C@]5(C(=O)O)CC5/C=C\CCCCC[C@H](NC(=O)OC5CCCC5)C(=O)N4C3)cc(-c3csc(NC(=O)C(C)C)n3)nc2c1C (stereo not given in full) [BI 1230],residual activity,[1],93%
same,residual activity,[2],98%
same,residual activity,[3],100%
same,residual activity,[4],87%
same,residual activity,[5],92%
same,residual activity,[6],100%
same,residual activity,[7],100%
same,residual activity,[8],100%
same,residual activity,[9],100%
same,residual activity,[10],100%
same,residual activity,[11],50%
same,residual activity,[12],97%
same,residual activity,[13],83%
same,residual activity,[14],88%
same,residual activity,[15],71%
same,residual activity,[16],98%
same,residual activity,[17],100%
same,residual activity,[18],98%
same,residual activity,[19],91%
same,residual activity,[20],100%
same,residual activity,[21],99%
same,residual activity,[22],100%
same,residual activity,[23],58%
same,residual activity,[24],100%
same,residual activity,[25],100%
same,residual activity,[26],100%
same,residual activity,[27],65%
same,residual activity,[28],100%
same,residual activity,[29],81%
same,residual activity,[30],99%
same,residual activity,[31],100%
same,residual activity,[32],93%
same,residual activity,[33],67%
same,residual activity,[34],91%
same,residual activity,[35],100%
same,residual activity,[36],100%
same,residual activity,[37],96%
same,residual activity,[38],100%
same,residual activity,[39],100%
same,inhibition,[40],46.3%
same,inhibition,[41],39.4%
same,inhibition,[42],43.5%
same,inhibition,[43],60.3%
same,inhibition,[44],0.21%
same,inhibition,[45],42.1%
O=C(N[C@H]1CCCCC/C=C\C2C[C@@]2(C(=O)O)NC(=O)[C@@H]2C[C@@H](Oc3ccncc3)CN2C1=O)OC1CCCC1 (stereo not given in full) [BI 1675],residual activity,[1],97%
same,residual activity,[2],100%
same,residual activity,[3],90%
same,residual activity,[4],71%
same,residual activity,[5],99%
same,residual activity,[6],95%
same,residual activity,[7],86%
same,residual activity,[8],95%
same,residual activity,[9],79%
same,residual activity,[10],67%
same,residual activity,[11],41%
same,residual activity,[12],100%
same,residual activity,[13],91%
same,residual activity,[14],100%
same,residual activity,[15],81%
same,residual activity,[16],100%
same,residual activity,[17],100%
same,residual activity,[18],87%
same,residual activity,[19],100%
same,residual activity,[20],89%
same,residual activity,[21],92%
same,residual activity,[22],73%
same,residual activity,[23],100%
same,residual activity,[24],82%
same,residual activity,[25],100%
same,residual activity,[26],88%
same,residual activity,[27],94%
same,residual activity,[28],99%
same,residual activity,[29],100%
same,residual activity,[30],79%
same,residual activity,[31],64%
same,residual activity,[32],85%
same,residual activity,[33],77%
same,residual activity,[34],97%
same,residual activity,[35],100%
same,residual activity,[36],100%
same,residual activity,[37],78%
same,residual activity,[38],100%
same,residual activity,[39],90%
same,inhibition,[40],-4.18%
same,inhibition,[41],15.6%
same,inhibition,[42],-8.87%
same,inhibition,[43],8.15%
same,inhibition,[44],-5.57%
same,inhibition,[45],11.1%
